According to patent US10292388B2, “Malononitrile compounds for controlling animal pests” (BASF SE, priority 2012, dated 2019):

Tests used:
[1] = system: boll weevil (Anthonomus grandis); test: Boll weevil microtiter plate diet test; format: in vivo; conditions: 120 h, sprayed onto insect diet with eggs, egg and larval mortality after 5 days, read-out: mortality in comparison with untreated controls
Description: B.9 Boll Weevil (Anthonomus grandis)
For evaluating control of boll weevil (Anthonomus grandis) the test unit consisted of 24-well-microtiter plates containing an insect diet and 20-30 A. grandis eggs. The compounds were formulated using a solution containing 75% v/v water and 25% v/v DMSO. Different concentrations of formulated compounds were sprayed onto the insect diet at 20 μl, using a custom built micro atomizer, at two replications. After application, microtiter plates were incubated at about 23±1° C. and about 50±5% relative humidity for 5 days. Egg and larval mortality was then visually assessed.

[2] = system: yellow fever mosquito (Aedes aegypti); test: whole plant or invertebrate; format: in vivo; conditions: 48 h, freshly hatched larvae in tap water, larval mortality after 2 days, read-out: mortality in comparison with untreated controls
Description: B.12 Yellow Fever Mosquito (Aedes aegypti)
For evaluating control of yellow fever mosquito (Aedes aegypti) the test unit consisted of 96-well-microtiter plates containing 200 μl of tap water per well and 5-15 freshly hatched A. aegypti larvae. The compounds or mixtures were formulated using a solution containing 75% water and 25% DMSO. Different concentrations of formulated compounds or mixtures were sprayed onto the insect diet at 2.5 μl, using a custom built micro atomizer, at two replications. After application, microtiter plates were incubated at 28±1° C., 80±5% relative humidity for 2 days. Larval mortality was then visually assessed.

C#Cc1ccc(CC(C#N)(C#N)c2ccc(C#N)cc2)cc1 [II-77, 2-(4-cyanophenyl)-2-[(4-ethynylphenyl)methyl]-propanedinitrile]
mortality at 2500 ppm [1]: ≥ 75%
mortality at 2500 ppm [2]: ≥ 75%
